US11401271B2, “Fused heterocyclic compound, pyrazole-ring-containing fused heterocyclic compound, agricultural composition containing thereof, and method of using the composition” (SOUTH CHINA AGRICULTURAL UNIVERSITY, priority 2017, dated 2022)

Legend:
Assay in all cases: whole plant or invertebrate
Format in all cases: in vivo
[1] = system: Plutella xylostella; conditions: 500 ppm; 2nd-instar larvae, leaf immersion feeding
Procedure, shortened: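 Cabbage leaf discs dipped 5 s in compound at 500 ppm (0.05% Tween-80 aqueous), air-dried, fed to about 35 2nd-instar larvae at 28° C., triplicate. Dead larvae counted after 24 h; mortality (%) corrected against Tween-80 control.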

[2] = system: Spodoptera exigua; conditions: 500 ppm; 2nd-instar larvae; leaf immersion feeding; 24 hours
Procedure, shortened: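 Cabbage leaf discs dipped 5 s in 500 ppm compound (0.05% Tween-80 aqueous), air-dried, fed to about 35 2nd-instar larvae at 28° C, three replicates. Deaths counted at 24 h; mortality corrected against Tween-80 control.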

[3] = system: Aphis craccivora; conditions: 500 ppm; wingless adults; impregnation method; 24 hours
Procedure, shortened: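 Wingless adults feeding on bean sprouts were dipped with the sprouts for 5 s in 500 ppm compound in aqueous 0.05% Tween-80, air-dried, then held at 23° C. Dead aphids counted after 24 h, triplicate, with 0.05% Tween-80 as control. Mortality (%) = (control live − treated live)/control live × 100.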

[4] = system: Solenopsis invicta; conditions: 100 ppm, water test tube poison-feeding
Procedure, shortened: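 Fire ants fed compound by water test-tube poison-feeding at 100 ppm in aqueous 0.05% Tween-80/5% honey (from 10 g/L DMSO stock), kept at 25 °C. Live and dead ants counted at 24 and 72 h; mortality (%) calculated relative to live ants in the untreated control.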

Structure (SMILES) | Plutella xylostella Mortality (%) 500 ppm [1] | Spodoptera exigua Mortality (%) 500 ppm [2] | Aphis craccivora Mortality (%) 500 ppm [3] | Solenopsis invicta Mortality (%) 100 ppm 24 h [4] | Solenopsis invicta Mortality (%) 100 ppm 72 h [4]
COC(=O)C1(CC#N)Nc2c([S+]([O-])C(F)(F)F)c(C#N)nn2-c2ncc(C(F)(F)F)cc21 (centres unmarked) [a-2] | 97% | 97% | 100% | 19% | 98%
CCOC(=O)CC1(C(=O)OCC)Nc2c([S+]([O-])C(F)(F)F)c(C#N)nn2-c2ncc(C(F)(F)F)cc21 (centres unmarked) [a-22] | 100% | 100% | 100% | 30% | 100%
CC(=O)CC1(C(=O)C(F)(F)F)Nc2c([S+]([O-])C(F)(F)F)c(C#N)nn2-c2ncc(C(F)(F)F)cc21 (centres unmarked) [a-26] | 100% | 100% | 100% | 34% | 100%
N#Cc1nn2c(c1[S+]([O-])C(F)(F)F)NC(Cc1ccccc1)(C(=O)C(F)(F)F)c1cc(C(F)(F)F)cnc1-2 (centres unmarked) [a-27] | 100% | 100% | 100% | 25% | 100%
COC(=O)CC1(C(=O)C(F)(F)F)Nc2c([S+]([O-])C(F)(F)F)c(C#N)nn2-c2ncc(C(F)(F)F)cc21 (centres unmarked) [a-28] | 100% | 95% | 100% | 23% | 99%
N#Cc1nn2c(c1[S+]([O-])C(F)(F)F)NC(CBr)(C(=O)C(F)(F)F)c1cc(C(F)(F)F)cnc1-2 (centres unmarked) [a-29] | 100% | 91% | 100% | 14% | 96%
N#CCC1(C(=O)C(F)(F)F)Nc2c([S+]([O-])C(F)(F)F)c(C#N)nn2-c2ncc(C(F)(F)F)cc21 (centres unmarked) [a-30] | 96% | 90% | 100% | 20% | 97%
CC(=O)C1(CC(F)(F)F)Nc2c([S+]([O-])C(F)(F)F)c(C#N)nn2-c2ncc(C(F)(F)F)cc21 (centres unmarked) [a-36] | 100% | 96% | 100% | 14% | 91%
CC(=O)C1(CC(=O)C(F)(F)F)Nc2c([S+]([O-])C(F)(F)F)c(C#N)nn2-c2ncc(C(F)(F)F)cc21 (centres unmarked) [a-37] | 100% | 96% | 100% | 15% | 99%
N#Cc1nn2c(c1[S+]([O-])C(F)(F)F)NC(Cl)(Cl)c1cc(C(F)(F)F)cnc1-2 (stereo not drawn) [a-44, 5,5-dichloro-7-trifluoromethyl-3-trifluoromethylsulfinyl-4,5-dihydropyrazole[1,5-α]quinazoline[3,2-e]pyridine-2-cyano] | 100% | 95% | 100% | 15% | 95%
N#Cc1nn2c(c1[S+]([O-])C(F)(F)F)NC(Cl)(CBr)c1cc(C(F)(F)F)cnc1-2 (centres unmarked) [a-45] | 100% | 91% | 100% | 20% | 90%
CC1(C)Nc2c([S+]([O-])C(F)(F)F)c(C#N)nn2-c2ncc(C(F)(F)F)cc21 (centres unmarked) [a-51] | 91% | 89% | 100% | 16% | 95%
N#Cc1nn2c(c1[S+]([O-])C(F)(F)F)NC(C#N)(C#N)c1cc(C(F)(F)F)cnc1-2 (centres unmarked) [a-52] | 100% | 89% | 91% | 20% | 89%
COC(=O)CC1(C#N)Nc2c([S+]([O-])C(F)(F)F)c(C#N)nn2-c2ncc(C(F)(F)F)cc21 (centres unmarked) [a-56] | 100% | 90% | 100% | 16% | 93%
N#Cc1nn2c(c1[S+]([O-])C(F)(F)F)NC(C#N)(CC(=O)C(F)(F)F)c1cc(C(F)(F)F)cnc1-2 (centres unmarked) [a-57] | 100% | 100% | 100% | 24% | 100%
N#CCC1(C(F)(F)F)Nc2c([S+]([O-])C(F)(F)F)c(C#N)nn2-c2ncc(C(F)(F)F)cc21 (centres unmarked) [a-59] | 96% | 91% | 100% | 28% | 97%
COC(=O)CC1(C(F)(F)F)Nc2c([S+]([O-])C(F)(F)F)c(C#N)nn2-c2ncc(C(F)(F)F)cc21 (centres unmarked) [a-62] | 100% | 100% | 100% | 21% | 99%
N#Cc1nn2c(c1[S+]([O-])C(F)(F)F)NC(CC(=O)C(F)(F)F)(C(F)(F)F)c1cc(C(F)(F)F)cnc1-2 (centres unmarked) [a-63] | 100% | 100% | 100% | 24% | 100%
COC(=O)C1Nc2c([S+]([O-])C(F)(F)F)c(C#N)nn2-c2ncc(C(F)(F)F)cc21 (centres unmarked) [a-64] | 100% | 99% | 100% | 20% | 99%
COC(=O)CC1Nc2c([S+]([O-])C(F)(F)F)c(C#N)nn2-c2ncc(C(F)(F)F)cc21 (centres unmarked) [a-65] | 100% | 100% | 100% | 26% | 100%
N#Cc1nn2c(c1[S+]([O-])C(F)(F)F)NC(C(=O)C(F)(F)F)c1cc(C(F)(F)F)cnc1-2 (centres unmarked) [a-71] | 100% | 99% | 100% | 24% | 100%
N#Cc1nn2c(c1[S+]([O-])C(F)(F)F)NC(C#N)c1cc(C(F)(F)F)cnc1-2 (centres unmarked) [a-72] | 96% | 89% | 100% | 20% | 91%
